Measurements reported in PubChem BioAssay AID200 (DTP/NCI, 2004).
“And” between values parts separate entries of the source, which are not always exact repeats. Equal entries are not always repeated. Inconclusive results and toxic doses are left out. Rule for the calls: active = survival T/C of 150% or more; inactive = T/C below 125% in these data. Where a SMILES comes first, the peptide text is derived from it. [ ]: non-standard residue; d: D form. The star is where a group is joined. Cbz = O=C(OCc1ccccc1)*; Nva = CCC[CH](N)C(=O)O

Test system: B6C3F1 mice, B16 melanoma ip, median survival T/C
Test: NCI In Vivo Anticancer Drug Screen. Data for tumor model B16 Melanoma (intraperitoneal) in B6C3F1 mice
Settings: endpoint: median survival time, schedule: Q01DX009 (ip), higher = longer survival
Outline: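 Readout: survival or tumor size in treated mice relative to vehicle controls (T/C). Model uses transplantable tumors grown in mice.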

[1] = dose: 25.0 mg/kg/injection, vehicle: saline
[2] = dose: 50.0 mg/kg/injection, vehicle: saline
[3] = dose: 100.0 mg/kg/injection, vehicle: saline
[4] = dose: 200.0 mg/kg/injection, vehicle: saline
[5] = dose: 25.0 mg/kg/injection, vehicle: saline with Tween-80
[6] = dose: 50.0 mg/kg/injection, vehicle: saline with Tween-80
[7] = dose: 100.0 mg/kg/injection, vehicle: saline with Tween-80
[8] = dose: 6.25 mg/kg/injection, vehicle: saline with Tween-80

Measured: T/C

CC(=O)NCCSSCCCCS(=O)O
inactive: [1] 96 % of control | [2] 103 % of control | [3] 98 % of control | [4] 111 % of control | dose: 400.0 mg/kg/injection, vehicle: saline 96 % of control

CC1Nc2ccccc2NC1C (stereo not drawn)
inactive: [5] 108 % of control | [6] 98 % of control | [7] 96 % of control

CCCC(NC(=O)OCc1ccccc1)C(=O)NC(CCSC)C(=O)O (stereo not drawn) (Cbz-[Nva]-Met-OH; configuration not given here)
inactive: dose: 100.0 mg/kg/injection, vehicle: Klucel (hydroxypropylcellulose) (HPC) 100 % of control | dose: 200.0 mg/kg/injection, vehicle: Klucel (hydroxypropylcellulose) (HPC) 104 % of control | dose: 400.0 mg/kg/injection, vehicle: Klucel (hydroxypropylcellulose) (HPC) 96 % of control

CC(C)N1C(=O)C=C(c2ccc([N+](=O)[O-])cc2)C1=O
inactive: dose: 3.12 mg/kg/injection, vehicle: saline with Tween-80 104 % of control | [8] 111 % of control | dose: 12.5 mg/kg/injection, vehicle: saline with Tween-80 105 % of control | [5] 105 % of control

Cn1cnc([N+](=O)[O-])c1Sc1ncn[nH]1
inactive: dose: 12.5 mg/kg/injection, vehicle: saline 108 % of control | dose: 12.5 mg/kg/injection, vehicle: suspension in saline 109 % of control | [1] 102 % of control | dose: 25.0 mg/kg/injection, vehicle: suspension in saline 115 % of control | [2] 108 % of control | dose: 50.0 mg/kg/injection, vehicle: suspension in saline 100 % of control | [3] 108 % of control | dose: 100.0 mg/kg/injection, vehicle: suspension in saline 101 % of control | [4] 108 % of control | dose: 200.0 mg/kg/injection, vehicle: suspension in saline 102 % of control

Nc1nc(-c2ccc(Cl)c([N+](=O)[O-])c2)c(Br)c(=O)[nH]1
inactive: dose: 18.25 mg/kg/injection, vehicle: saline with Tween-80 121 % of control | dose: 36.5 mg/kg/injection, vehicle: saline with Tween-80 118 % of control | dose: 73.0 mg/kg/injection, vehicle: saline with Tween-80 100 % of control | dose: 146.0 mg/kg/injection, vehicle: saline with Tween-80 100 % of control

O=C(Nc1ccc([N+](=O)[O-])cc1)Nc1nncs1
inactive: dose: 25.0 mg/kg/injection, vehicle: distilled water + Tween-80 122 % of control and 103 % of control | dose: 50.0 mg/kg/injection, vehicle: distilled water + Tween-80 112 % of control and 113 % of control | dose: 200.0 mg/kg/injection, vehicle: distilled water + Tween-80 120 % of control

Cc1cc(Cc2cc(C)c(C)c(C)c2C)c(C)c(C)c1C
inactive: dose: 0.78 mg/kg/injection, vehicle: saline with Tween-80 89 % of control | dose: 1.56 mg/kg/injection, vehicle: saline with Tween-80 91 % of control | dose: 3.13 mg/kg/injection, vehicle: saline with Tween-80 100 % of control | [8] 106 % of control

CC(O)C(NC(=O)OC(C)(C)C)C(=O)ON1C(=O)CCC1=O (stereo not drawn)
inactive: [6] 98 % of control | [7] 96 % of control | dose: 200.0 mg/kg/injection, vehicle: saline with Tween-80 91 % of control

c1cc2c(c(CC3CO3)c1CC1CO1)OCCOCCOCCOCCO2 (stereo not drawn)
inactive: dose: 6.25 mg/kg/injection, vehicle: saline + alcohol 102 % of control | dose: 12.5 mg/kg/injection, vehicle: saline + alcohol 112 % of control | dose: 25.0 mg/kg/injection, vehicle: saline + Tween-80 + alcohol 113 % of control | dose: 25.0 mg/kg/injection, vehicle: saline + alcohol 112 % of control | dose: 50.0 mg/kg/injection, vehicle: saline + Tween-80 + alcohol 113 % of control | dose: 50.0 mg/kg/injection, vehicle: saline + alcohol 119 % of control and 108 % of control | dose: 100.0 mg/kg/injection, vehicle: saline + Tween-80 + alcohol 122 % of control | dose: 100.0 mg/kg/injection, vehicle: saline + alcohol 113 % of control and 123 % of control | dose: 200.0 mg/kg/injection, vehicle: saline + alcohol 109 % of control
